In assay [1] the test system is primary postnatal (P0) cortical cells. As to the kind of experiment: Neurite outgrowth assay (Aβ1-42-induced reduction of neurite outgrowth, high content microscopy). Conditions: for Emax: Rattus norvegicus, read-out: Maximum Effect (of % 300 nM Dimebolin). The format is cell-based, rat. As for the experimental part:
In addition to PC12 cells, other cellular model systems may also be used. Rat cortical cells were cultured and prepared for high content microscopy analysis as previously described (Hu, M.; Schurdak, M. E.; et al. High content screen microscopy analysis of Aβ1-42-induced neurite outgrowth reduction in rat primary cortical neurons: Neuroprotective effects of α7 neuronal nicotinic acetylcholine receptor ligands. Brain Res. 2007, 1151, 227-235.). Briefly, cortical cell cultures were plated at density of 5×10^5 cells/mL onto poly-D-lysine coated 96-well plates and maintained in a cell incubator at 37° C. with 5% CO2. Experiments were performed using 6-7 day-old cortical cell cultures by treating with test compounds. In some experiments, the effect of test compounds on reversing Aβ toxicity were also measured (Hu, M.; Schurdak, M. E.; et al. High content screen microscopy analysis of Aβ1-42-induced neurite outgrowth reduction in rat primary cortical neurons: Neuroprotective effects of α7 neuronal nicotinic acetylcholine receptor ligands. Brain Res. 2007, 1151, 227-235.). For assessment of neuroprotective effects, cells were first pretreated with test compounds for about 5 hours. Medium was then replaced with the medium containing freshly prepared about 5 μM Aβ1-42 peptide in the absence or presence of the test compounds for 3 days. The untreated group contained the same percentage of vehicle (DMSO) as in the treatment groups. Cells were fixed with approximately 4% paraformaldehyde containing 0.5% Hoechst 33342 for about 15 minutes, followed by three washes using PBS (pH 7.4) and blocked with 10% donkey serum in PBS for 1 hour at room temperature. The cells were then incubated overnight at about 4° C. with mouse anti-tubulin monoclonal antibody (1:100) for staining neurons and rabbit anti-GFAP (1:1000) for staining glia. In the next day, cells were incubated with FITC-labeled anti-mouse and TRITC-labeled anti-rabbit antibodies (1:1000) for about 1 hour at room temperature. After fixing and staining the cells, nuclei (360/400 nm excitation and 465/300 nm emission filters), neuron (475/350 nm excitation and 535/400 nm emission filters) and glial cell (535 nm excitation and 610 nm emission filters) images were collected using the ImageExpress Micro automatic fluorescent microscopy system (Molecular Devices, Sunnyvale, Calif.) employing a Nikon 10× Plan Fluor objective and Cool Snap HQ CCD camera. The Neurite Outgrowth module in the MetaMorph Imaging software was used to automatically count total cell number, number of neuron cells, and the extent of neurite outgrowth.
In the graph of FIG. 2, 100% response was the response observed for untreated cells. Exposure to Aβ1-42 produced a decrease in neurite outgrowth. Treatment of cells with compounds prior to and concomitantly with Aβ1-42 gave a neuroprotective effect with neurite outgrowth maintained or enhanced relative to untreated cells.

Assay [2] has as its system SK-N-SH human neuroblastoma cells. Kind of assay: Serum deprivation/JC-1 mitochondrial membrane potential (MMP) assay. Format: cell-based. Conditions: for Emax: read-out: JC-1 max %. The method, boiled down:
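Cells were serum-deprived ~18 h in MEM with or without compound (DMSO ≤1%), then stained with JC-1 for 35 min at 37° C. The red/green fluorescence ratio (560/595 vs 485/535 nm) was normalized to the peak response of 10 μM dimebolin. EC50 came from one curve fit to mean data (n=2-3, duplicates).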

Setting [3] is: maximum response relative to 300 nM dimebolin, at the concentration given.
[4] abbreviates: Homo sapiens, SK-N-SH, percent maximal intensity in JC-1 ratio normalized to 10 μM dimebolin.
[5] abbreviates: Homo sapiens, SK-N-SH cells, serum deprivation ~18 hours, JC-1 ratio normalized to peak value for 10 μM dimebolin, single curve fit to mean data of n=2-3, read-out: EC50.

Each structure is given as a SMILES string. Where two headings read alike, the source gives them in different places.

As to `Cc1ccc2c(c1)c1c(n2CCc2ccc(C)nc2)C[C@H]2CC[C@@H]1N2` (single isomer, unassigned) [Example 6], the values for the Emax in assay [1] (setting [3]) and in assay [2] (setting [4]) were 124% and 163%, respectively. Also, the EC50 in assay [2] (setting [5]) worked out at 5.79 µM.

On to `O=c1cnc2ccc(-n3c4c(c5ccccc53)CN3CCC4CC3)cc2[nH]1` [Example 274, 7-(1,3,4,5-tetrahydro-6H-2,5-ethanoazepino[4,3-b]indol-6-yl)quinoxalin-2(1H)-one], for which the Emax stood at 111% in assay [1] (setting [3]) and 235% in assay [2] (setting [4]). In addition, the EC50 in assay [2] (setting [5]) stood at 2.27 µM.

Consider `Fc1ccc(Cn2c3c(c4cc(F)ccc42)CN2CCC3CC2)cc1` [Example 165, 9-fluoro-6-(4-fluorobenzyl)-3,4,5,6-tetrahydro-1H-2,5-ethanoazepino[4,3-b]indole], for which the Emax in assay [1] (setting [3]) was found to be 104%.

As for `Cc1ccc2c(c1)[C@H]1CN3CCC(CC3)[C@H]1N2CCc1ccc(C)nc1` (relative stereo) [Example 158, (5aR*,10bS*)-9-methyl-6-[2-(6-methylpyridin-3-yl)ethyl]-3,4,5,5a,6,10b-hexahydro-1H-2,5-ethanoazepino[4,3-b]indole], in assay [1] (setting [3]), the Emax came out at 110%.

For `O=c1ccnc2ccc(-n3c4c(c5ccccc53)CN3CCC4CC3)cn12` [Example 277, 7-(1,3,4,5-tetrahydro-6H-2,5-ethanoazepino[4,3-b]indol-6-yl)-4H-pyrido[1,2-a]pyrimidin-4-one], the Emax in assay [1] (setting [3]) was found to be 91%; in assay [2] (setting [4]) it was 190%. Moreover, the EC50 in assay [2] (setting [5]) worked out at 2.4 µM.

For the molecule `Cc1ccc2c(c1)c1c(n2CCc2cccc(C(F)(F)F)c2)C[C@H]2CCC[C@@H]1N2` (single isomer, unassigned) [Example 133], the Emax in assay [1] (setting [3]) worked out at 108%.

For the molecule `Cc1ccc2c(c1)c1c(n2CCc2cccc(C(F)(F)F)c2)C[C@@H]2CCC[C@H]1N2` [Example 135, (7S,11R)-2-methyl-5-{2-[3-(trifluoromethyl)phenyl]ethyl}-6,7,8,9,10,11-hexahydro-5H-7,11-epiminocycloocta[b]indole], in assay [1] (setting [3]), the Emax was 126%.

Take `Fc1ccc2c(c1)c1c(n2Cc2ccc(Br)cc2)C2CCN(CC2)C1` [Example 167, 6-(4-bromobenzyl)-9-fluoro-3,4,5,6-tetrahydro-1H-2,5-ethanoazepino[4,3-b]indole]: the Emax in assay [1] (setting [3]) worked out at 92%; in assay [2] (setting [4]), 149%. The EC50 in assay [2] (setting [5]) was found to be 4.71 µM.

For the molecule `Cc1ccc2c(c1)c1c(n2CCc2cnc(C)nc2)C[C@H]2CC[C@@H]1N2C` [Example 31, (7R,10S)-2,11-dimethyl-5-[2-(2-methylpyrimidin-5-yl)ethyl]-5,6,7,8,9,10-hexahydro-7,10-epiminocyclohepta[b]indole], the Emax was determined as 96% in assay [1] (setting [3]) and 97% in assay [2] (setting [4]). For the same molecule, the EC50 in assay [2] (setting [5]) was 6.05 µM.

Consider `O=c1ccnc2ccc(-n3c4c(c5cc(F)ccc53)CN3CCC4CC3)cn12` [Example 261, 7-(9-fluoro-1,3,4,5-tetrahydro-6H-2,5-ethanoazepino[4,3-b]indol-6-yl)-4H-pyrido[1,2-a]pyrimidin-4-one], for which the Emax amounted to 104% in assay [1] (setting [3]) and 160% in assay [2] (setting [4]). Besides, the EC50 in assay [2] (setting [5]) was determined as 5.72 µM.

Take `c1ccc2c(c1)c1c(n2-c2ccc3ccncc3c2)C[C@@H]2CC[C@H]1N2` (single isomer, unassigned) [Example 280]: the Emax in assay [1] (setting [3]) was determined as 107%; in assay [2] (setting [4]), 201%. Further, the EC50 in assay [2] (setting [5]) came to 5.25 µM.

In the case of `Fc1ccc2c(c1)c1c(n2-c2cccnc2)C2CCN(CC2)C1` [Example 264, 9-fluoro-6-(pyridin-3-yl)-3,4,5,6-tetrahydro-1H-2,5-ethanoazepino[4,3-b]indole], the Emax in assay [1] (setting [3]) was determined as 110%; in assay [2] (setting [4]), 107%. The EC50 in assay [2] (setting [5]) worked out at 7.8 µM.

As for `Fc1ccc2c(c1)c1c(n2-c2ccc3ncccc3c2)C2CCN(CC2)C1` [Example 228, 9-fluoro-6-quinolin-6-yl-3,4,5,6-tetrahydro-1H-2,5-ethanoazepino[4,3-b]indole], the Emax in assay [1] (setting [3]) turned out to be 141%; in assay [2] (setting [4]), 263%. The EC50 in assay [2] (setting [5]) is 1.73 µM.

Turning to `c1cnc2ccc(-n3c4c(c5ccccc53)[C@@H]3CC[C@H](C4)N3)cc2c1` [Example 282, (7R,10S)-5-(quinolin-6-yl)-5,6,7,8,9,1-hexahydro-7,10-epiminocyclohepta[b]indole], in assay [1] (setting [3]), the “Maximum Effect (of % 300 nM Dimebolin)” value worked out at 115%. In addition, the “Concentration (nM) at which the maximum effect was noted” value in assay [1] (test compound concentration giving the maximum response) was 30 nM. For the same molecule, the concentration giving a half-maximal response (EC50) in assay [2] (SK-N-SH cells, serum deprivation ~18 hours, JC-1 ratio normalized to peak value for 10 μM dimebolin, single curve fit to mean data of n=2-3, read-out: EC50) came to 3.21 µM. For the same molecule, in assay [2] (percent maximal intensity in JC-1 ratio normalized to 10 μM dimebolin), the JC-1 max % came to 228%.

Consider `Cc1ccc2c(c1)[C@H]1[C@H]3CC4C[C@H](CN(C4)C3)[C@H]1N2CCc1ccc(C)nc1` (relative stereo) [Example 194, (1R*,7R*,7aS*,12bR*)-11-methyl-8-[2-(6-methylpyridin-3-yl)ethyl]-1,4,5,6,7,7a,8,12b-octahydro-2H-1,5:3,7-dimethanoazonino[5,4-b]indole], for which the Emax in assay [2] (setting [4]) came out at 321%. Further, in assay [2] (setting [5]), the EC50 is 2.18 µM.

Turning to `Cc1ccc2c(c1)c1c(n2CCc2ccc(Cl)cc2)C2CCCN(C1)C2` (stereo not shown) [Example 204, 7-[2-(4-chlorophenyl)ethyl]-10-methyl-1,3,4,5,6,7-hexahydro-2,6-methanoazocino[4,3-b]indole], in assay [2] (setting [4]), the Emax was found to be 182%. Further, the EC50 in assay [2] (setting [5]) was determined as 3.23 µM.

`FC12CC3CC(CN(C3)C1)c1c2c2ccccc2n1Cc1ccc(Cl)nc1` (stereo not shown) [Example 190, 8-[(6-chloropyridin-3-yl)methyl]-1-fluoro-1,4,5,6,7,8-hexahydro-2H-1,5:3,7-dimethanoazonino[5,4-b]indole]: the Emax in assay [2] (setting [4]) came to 175%. The EC50 in assay [2] (setting [5]) worked out at 5.06 µM.

As for `Fc1ccc2c(c1)c1c(n2Cc2ccc(Cl)nc2)C2CCN(CC2)C1` [Example 164, 6-[(6-chloropyridin-3-yl)methyl]-9-fluoro-3,4,5,6-tetrahydro-1H-2,5-ethanoazepino[4,3-b]indole], the Emax in assay [2] (setting [4]) amounted to 197%. The EC50 in assay [2] (setting [5]) was determined as 4.95 µM.

With `c1ccc2c(c1)c1c(n2-c2ccc3cnccc3c2)C2CCN(CC2)C1` [Example 271, 6-(isoquinolin-6-yl)-3,4,5,6-tetrahydro-1H-2,5-ethanoazepino[4,3-b]indole], in assay [2] (setting [4]), the Emax was 264%. In assay [2] (setting [5]), the EC50 stood at 3.17 µM.

With `Cc1ccc(/C=C\n2c3c(c4cc(S(C)(=O)=O)ccc42)CN2CCC3CC2)cn1` [Example 181, 6-[(Z)-2-(6-methylpyridin-3-yl)vinyl]-9-(methylsulfonyl)-3,4,5,6-tetrahydro-1H-2,5-ethanoazepino[4,3-b]indole], the Emax in assay [2] (setting [4]) was 103%. The EC50 in assay [2] (setting [5]) worked out at 7.89 µM.

In the case of `COc1cccc2c3c(n(CCc4ccc(Cl)cc4)c12)CC1CCC3N1C` (stereo not shown) [Example 96, 5-[2-(4-chlorophenyl)ethyl]-4-methoxy-11-methyl-5,6,7,8,9,10-hexahydro-7,10-epiminocyclohepta[b]indole], the Emax in assay [2] (setting [4]) stood at 169%. Moreover, the EC50 in assay [2] (setting [5]) amounted to 4.41 µM.

Regarding `O=c1ccccn1-c1cccc(-n2c3c(c4ccccc42)CN2CCC3CC2)n1` [Example 273, 6′-(1,3,4,5-tetrahydro-6H-2,5-ethanoazepino[4,3-b]indol-6-yl)-2H-1,2′-bipyridin-2-one], the Emax in assay [2] (setting [4]) is 190%. In assay [2] (setting [5]), the EC50 was found to be 7.48 µM.

With `CN1C2CCC1c1c(n(CCc3ccc(Cl)cc3)c3ccc(OC(F)(F)F)cc13)C2` (stereo not shown) [Example 97, 5-[2-(4-chlorophenyl)ethyl]-11-methyl-2-(trifluoromethoxy)-5,6,7,8,9,10-hexahydro-7,10-epiminocyclohepta[b]indole], in assay [2] (Homo sapiens, SK-N-SH, 18 h), the EC50 was 5.13 µM. Moreover, the Emax in assay [2] (Homo sapiens, SK-N-SH) worked out at 164%.

Take `Cc1ccc2c(c1)c1c(n2CCc2ccccc2C)C[C@H]2CCC[C@@H]1N2` (single isomer, unassigned) [Example 127]: in assay [2] (setting [4]), the Emax amounted to 151%. Moreover, the EC50 in assay [2] (setting [5]) stood at 3.69 µM.

For the origin of these results see US9983218B2, “Indole and indoline derivatives and methods of use thereof” (AbbVie Inc., priority 2008, dated 2018).
